# Assays:
# Dengue virus = assay: Antiviral activity against DENV-NGC-1 infected in […] incubated for 7 days by CellTiter 96 luminescent cell viability assay; assay type: functional, organism-based; conditions: NGC-1, BHK, 168 h
# Zika virus = assay: Antiviral activity against ZIKV-SMGC-1 infected in […] incubated for 7 days by CellTiter 96 luminescent cell viability assay; assay type: functional, organism-based; conditions: SMGC-1, BHK, 168 h
# [1] = test system: Japanese encephalitis virus; assay: Antiviral activity against JEV-SA14 infected in […] incubated for 7 days by CellTiter 96 luminescent cell viability assay; assay type: functional, organism-based; conditions: 168 h
# Yellow fever virus = assay: Antiviral activity against YFV-17D infected in […] incubated for 7 days by CellTiter 96 luminescent cell viability assay; assay type: functional, organism-based; conditions: 168 h
# Enterovirus A71 = assay: Antiviral activity against EV71 infected in human RD cells incubated for 3 days by CellTiter 96 luminescent cell viability assay; assay type: functional, organism-based; conditions: Enterovirus A, 71, RD, 72 h
# Coxsackievirus A16 = assay: Antiviral activity against CA16 infected in human RD cells incubated for 3 days by CellTiter 96 luminescent cell viability assay; assay type: functional, organism-based; conditions: Enterovirus A, 72 h
# [2] = Cytotoxicity against human RD cells infected with EV71 incubated for 3 days by CellTiter 96 luminescent cell viability assay; assay type: toxicity, cell-based; conditions: time 3 day
# [3] = Cytotoxicity against human RD cells infected with CA16 incubated for 3 days by CellTiter 96 luminescent cell viability assay; assay type: toxicity, cell-based; conditions: time 3 day
# [4] = Selectivity index, ratio of CC50 for human RD cells to IC50 for EV71 infected in human RD cells; assay type: toxicity, cell-based; conditions: read-out: Ratio CC50/IC50
# [5] = Selectivity index, ratio of CC50 for human RD cells to IC50 for CA16 infected in human RD cells; assay type: toxicity, cell-based; conditions: read-out: Ratio CC50/IC50
# [6] = Cytotoxicity against […] infected with DENV-NGC-1 incubated for 7 days by CellTiter 96 luminescent cell viability assay; assay type: toxicity, cell-based; conditions: time 7 day
# [7] = Selectivity index, ratio of CC50 for […] to IC50 for ZIKV-SMGC-1 infected in […]; assay type: toxicity, cell-based; conditions: read-out: Ratio CC50/IC50
# [8] = Selectivity index, ratio of CC50 for […] to IC50 for DENV-NGC infected in […]; assay type: toxicity, cell-based; conditions: read-out: Ratio CC50/IC50
# [9] = Cytotoxicity against […] infected with ZIKV-SMGC-1 incubated for 7 days by CellTiter 96 luminescent cell viability assay; assay type: toxicity, cell-based; conditions: time 7 day
# [10] = Cytotoxicity against […] infected with YFV-17D incubated for 7 days by CellTiter 96 luminescent cell viability assay; assay type: toxicity, cell-based; conditions: time 7 day
# [11] = Selectivity index, ratio of CC50 for […] to IC50 for YFV-17D infected in […]; assay type: toxicity, cell-based; conditions: read-out: Ratio CC50/IC50
# [12] = Cytotoxicity against […] infected with JEV-SA14 incubated for 7 days by CellTiter 96 luminescent cell viability assay; assay type: toxicity, cell-based; conditions: time 7 day
# [13] = Selectivity index, ratio of CC50 for […] to IC50 for JEV-SA14 infected in […]; assay type: toxicity, cell-based; conditions: read-out: Ratio CC50/IC50
SMILES,IC50 (Dengue virus) [nM],IC50 (Zika virus) [nM],IC50 [1] [nM],IC50 (Yellow fever virus) [nM],IC50 (Enterovirus A71) [nM],IC50 (Coxsackievirus A16) [nM],CC50 at 72 h [2] [nM],CC50 at 72 h [3] [nM],selectivity ratio [4],selectivity ratio [5],CC50 at 168 h [6] [nM],selectivity ratio [7],selectivity ratio [8],CC50 at 168 h [9] [nM],CC50 at 168 h [10] [nM],selectivity ratio [11],CC50 at 168 h [12] [nM],selectivity ratio [13]
O=C(c1ccc(C(F)(F)F)cc1O)c1[nH]c(Cl)c(Cl)c1-n1c(C(=O)c2ccc(C(F)(F)F)cc2O)cc(Cl)c1Cl,> 300,> 300,> 200000,> 200000,60,10,120,250,1.96,24.6,–,–,–,–,–,–,–,–
O=C(c1ccc(C(F)(F)F)cc1O)c1[nH]c(Cl)c(Cl)c1-n1c(C(=O)c2ccc(C(F)(F)F)cc2O)cc(Cl)c1SCc1cccnc1,240,280,–,–,270,100,570,860,2.1,8.61,320,1.14,1.33,–,–,–,–,–
O=C(c1ccc(C(F)(F)F)cc1O)c1[nH]c(Cl)c(Cl)c1-n1c(C(=O)c2ccc(C(F)(F)F)cc2O)cc(Cl)c1Sc1nnnn1CCO,–,6410,–,8310,4770,2510,10800,15300,2.27,6.1,–,1.25,–,8010,12200,1.47,–,–
O=C(c1ccc(C(F)(F)F)cc1O)c1[nH]c(Cl)c(Cl)c1-n1c(C(=O)c2ccc(C(F)(F)F)cc2O)cc(Cl)c1SCCc1ccccn1,–,150,620,570,50,20,270,350,5.4,17.5,–,4.07,–,25400,610,1.07,610,0.98
O=C(c1ccc(C(F)(F)F)cc1O)c1[nH]c(Cl)c(Cl)c1-n1c(C(=O)c2ccc(C(F)(F)F)cc2O)cc(Cl)c1Sc1nc2cccnc2[nH]1,22800,31400,24400,19700,–,5900,–,19900,–,3.37,17100,0.54,0.75,1800,19300,0.98,19200,0.79
Cc1nnc(Sc2c(Cl)cc(C(=O)c3ccc(C(F)(F)F)cc3O)n2-c2c(C(=O)c3ccc(C(F)(F)F)cc3O)[nH]c(Cl)c2Cl)s1,760,780,930,850,–,280,–,2640,–,9.43,440,0.57,0.58,440,1720,2.02,1720,1.85
O=C(c1ccc(C(F)(F)F)cc1O)c1[nH]c(Cl)c(Cl)c1-n1c(C(=O)c2ccc(C(F)(F)F)cc2O)cc(Cl)c1Sc1nc2ccccc2[nH]1,21600,14500,–,23200,–,9130,–,45600,–,5,25300,1.75,1.17,110,30800,1.33,–,–
O=C(c1ccc(C(F)(F)F)cc1O)c1[nH]c(Cl)c(Cl)c1-n1c(C(=O)c2ccc(C(F)(F)F)cc2O)cc(Cl)c1Sc1cnccn1,290,250,600,840,–,180,–,11000,–,60.9,1460,5.85,5.03,1460,1220,1.45,1210,2.02
O=C(c1ccc(C(F)(F)F)cc1O)c1[nH]c(Cl)c(Cl)c1-n1c(C(=O)c2ccc(C(F)(F)F)cc2O)cc(Cl)c1Sc1nc[nH]n1,–,5670,29400,24300,–,–,–,–,–,–,–,2.44,–,13800,18600,0.77,18700,0.64
O=C(c1ccc(C(F)(F)F)cc1O)c1[nH]c(Cl)c(Cl)c1-n1c(C(=O)c2ccc(C(F)(F)F)cc2O)cc(Cl)c1Sc1nc2ccccc2s1,1040,910,700,820,–,130,–,1460,–,11.3,110,0.12,0.11,17100,1170,1.43,1180,1.68
O=C(c1ccc(C(F)(F)F)cc1O)c1[nH]c(Cl)c(Cl)c1-n1c(C(=O)c2ccc(C(F)(F)F)cc2O)cc(Cl)c1Sc1ncc[nH]1,1150,970,1260,1280,–,–,–,–,–,–,3750,3.87,3.26,3750,3750,2.93,3750,2.98
O=C(c1ccc(C(F)(F)F)cc1O)c1[nH]c(Cl)c(Cl)c1-n1c(C(=O)c2ccc(C(F)(F)F)cc2O)cc(Cl)c1Sc1cccc[n+]1[O-],3680,–,–,3130,–,1070,–,8510,–,7.95,8060,–,2.19,–,8060,2.58,–,–
O=C(c1ccc(C(F)(F)F)cc1O)c1[nH]c(Cl)c(Cl)c1-n1c(C(=O)c2ccc(C(F)(F)F)cc2O)cc(Cl)c1SCc1ncccn1,–,–,–,–,200,80,560,830,2.78,10.4,–,–,–,610,–,–,–,–
[N-]=[N+]=NCCCSc1c(Cl)cc(C(=O)c2ccc(C(F)(F)F)cc2O)n1-c1c(C(=O)c2ccc(C(F)(F)F)cc2O)[nH]c(Cl)c1Cl,–,90,90,–,–,–,–,–,–,–,–,–,–,500,–,–,310,3.44
